Measured values reported in patent publication US8709741B2, “Methods of diagnosing a plasmodium infection” (priority 2009, dated 2014).
Where two headings read alike, the source gives them in different places.

How the values were obtained:
Assay type in all cases: cell-based
P. falciparum = test: Involvement of enzymatic activity in GX sPLA2-induced inhibition of parasite growth (schizont-enriched culture, 24 h); details: 37.5 μM LY329722 plus 50 nM GX sPLA2, 24 h
Description: Parasitaemia (%) at t 0 h and t 24 h were determined from Diff Quick-stained smears. Y axis states increase of parasitaemia (A parasitaemia (%)), expressed as parasitaemia at t 24 h-parasitaemia at t 0 h;
Parasitaemia (%) before incubation, and after 24 h of incubation, was determined from Diff Quick-stained smears. Parasite growth was expressed as the percent delta of parasitaemia, using the following formula:
ΔP=[(Px−P0)/(P100−P0)]×100; where ΔP is in percent, P0 is the parasitaemia (%) in the initial culture, P100 is the parasitaemia (%) after 24 h in normal culture conditions, and Px is the parasitaemia (%) after 24 h in experimental conditions.

[1] = system: P. falciparum FcB1/Colombian strain; test: Anti-Plasmodium activity assay (dose-response, 3H-hypoxanthine incorporation), culture with human serum; details: read-out: IC50 on Plasmodium intra-erythrocytic development
Description: The chloroquine-resistant P. falciparum FcB1/Colombian strain was used. Under the following culture conditions, the in vitro life cycle of the FcB1 strain was 48 hours. Cultures were grown in complete medium consisting of RPMI 1640 (Life Technologies, Inc.) supplemented with 11 mM glucose, 27.5 mM NaHCO3, 100 UI/mL penicillin, 100 μg/mL streptomycin, adjusted to pH 7.4 before addition of heat-inactivated human serum (A+ blood group, 8% final) or Albumax II® (0.5% final), according to the procedure of Trager and Jensen (1976). Parasites were routinely grown at 37° C. in human A+ RBCs (Red blood cells) at a 2% haematocrit and 2-6% parasitemia, in a 3% CO2, 6% O2 and 91% N2 atmosphere. Semi-synchronized cultures were established by Sorbitol (Lambros) treatment. Highly synchronized cultures (4 hour-window synchronization) were obtained by successive Plamion (Pasvol) and Sorbitol treatments. Parasitaemia and stage distribution were determined by optical examination of Diff-Quick stained culture smears. Parasitaemia (expressed in percent) is hundred times the number of parasitized erythrocytes divided by the total number of erythrocytes.
Dried preparations of the purified recombinant human sPLA2s were re-suspended at high concentration (usually 50 μM) in RPMI 0.05% BSA, and then tested individually for their capacity to inhibit the in vitro intra-erythrocytic development of P. falciparum. Dose-response assays based on ^3H-hypoxanthine incorporation by growing parasites were performed as in Guillaume et al. (2004). Radioactivity was measured with a 1450 Microbeta counter (Wallac, Perkin Elmer). Percentage of growth inhibition was calculated from the parasite-associated radioactivity compared with control without sPLA2. Values for the IC50 were determined from dose-response curves.

[2] = system: P. falciparum FcB1 strain; test: In vitro chemosensitizing activity of PAF on hGX sPLA2 (response modification index); details: fixed sub-inhibitory PAF 25 μM, 37.5 μM and 50 μM
Description: The effects of serial concentrations of PAF (platelet-activating factor) on the susceptibility of the P. falciparum FcB1 strain to GX sPLA2 were assessed in vitro. A P. falciparum culture (1% parasitaemia, 2% haematocrit) was incubated in a 96-well microplate with decreasing concentrations of the recombinant GX sPLA2 in the presence of a fixed, sub-inhibitory concentration of PAF. The response modification index (RMI) as a function of PAF concentration is represented. RMI is the ratio of the 50% inhibitory concentrations (IC50) for GX sPLA2 plus the concentration of PAF, and GX sPLA2 alone. An RMI of 1.0 represents no change in the IC50 for GX sPLA2 when combined with PAF. The RMI values<1.0 represent the degree of potentiation or synergism.
Quantitative analysis of the increased activity of recombinant hGX sPLA2 when combined with PAF was done by comparing concentration-response curves for hGX sPLA2 alone and in the presence of several fixed, sub-inhibitory concentrations of PAF. Effects of each fixed concentration of PAF on the response of the parasites (IC50) to hGX sPLA2 were expressed as the response modification index (RMI) (Oduola et al., 1998). The RMI was calculated by the following formula: RMI=IC50(A,B)/IC50(A), where drug A is hGX sPLA2 and B is PAF. An RMI of 1.0 represents no change in the IC50 for the recombinant hGX sPLA2 combined with PAF. […]

| Compound | effect on GX sPLA2-induced inhibition of parasite growth (P. falciparum) | IC50 ([1]; serum PAF-AH inhibited by Pefabloc) | IC50 ([1]; standard culture conditions) | response modification index (RMI) = IC50(GX sPLA2 + PAF)/IC50(GX sPLA2) [2] |
| --- | --- | --- | --- | --- |
| CCc1c(C(=O)C(N)=O)c2c(OCC(=O)O)cc(C)cc2n1Cc1ccccc1 [LY329722, sodium [3-aminooxalyl-1-benzyl-2-ethyl-6-methyl-1H-indol-4-yloxy]-acetic acid] | Inhibition of parasite growth was removed | – | – | – |
| platelet-activating factor [PAF] | – | 95 ± 2.8 µM | 82 ± 1.2 µM | < 1 |
